Experimental data as given in US11351215B2, “Composition for preventing hair loss and stimulating hair-growth” (MOTHER″S PHARMACEUTICAL CO., LTD., priority 2018, dated 2022).
Where “and” joins values, the source holds several entries; their conditions need not be identical. Equal entries are not always repeated.

Columns and labels:
Assay type in all cases: in vivo, mouse
male C57BL/6 mice [1] = assay: Hair-growth efficacy test in catagen inhibition animal model, visual inspection, Centipeda minima extracts (Example 2-1); conditions: Day 5 after 7 days of administration (+12 day); topical 100 μL twice a day; dexamethasone-induced catagen
Text: (§1) To proceed with the hair-growth efficacy test in the catagen inhibition animal model of Centipeda minima extract, male C57BL/6 mice (5 weeks of age) were purchased and subjected to acclimation for 1 week and selected animals weighing 20 to 24 g. In the case of an animal in which skin damage occurred during hair removal, or if the skin color was black, the growth period was already in progress, so it was inappropriate for this experiment and was excluded from the experiment.
The test group was divided into a normal group, a negative control group, a test substance-administered group, and a positive control groups 1 and 2. The normal group had three mice, the negative control group had 4 mice, the test substance-administered group had 4 mice, and the positive control group 1 (Tofacitinib) had four mice, and the positive control group 2 (Minoxidil) had four mice. […]
Further, to quantify the results of hair-growth efficacy visual inspection, a black portion (anagen) or a region where hair-growth begins in the entire hair removal site (solvent or test substance, positive control substance application site) was visually observed. […]

male C57BL/6 mice [2] = assay: Skin tissue pathology test, H&E staining (Example 1-2); conditions: H&E stained skin tissue after end of experiment
Procedure: (§2) The skin tissue pathology test was conducted by H&E staining using Hematoxylin and Eosin, which are generally used widely. A sample was collected from the skin tissue of the sacrificed animals and the generation of hair follicles and phenomena of hair-growth were identified through fixation, washing, clearing, paraffin infiltration, embedding, microtome cutting, staining and reading processes.
In this study, Anagen_Early (A/e) indicates the state in which hair has just begun to develop and Anagen_late (A/l) and Catagen_early (C/e) indicate that hair-growth is in full swing. Anagen_late and Catagen_early have histologically similar positions of the hair bulb. When considering morphological changes according to tissue sections, it is necessary to consider that it is often unclear to distinguish there between. Nevertheless, the hair follicles in the Anagen_late and Catagen_early stages are generally considered as similar stages of development, and the results are interpreted.

male C57BL/6 mice [3] = assay: Skin tissue pathology test, H&E staining (Example 2-2); conditions: H&E stained skin tissue, day 12
Procedure: as §2, with “conducted on day 12” for “conducted”, “widely used.” for “generally used widely.”

male C57BL/6 mice [4] = assay: Hair-growth efficacy test in catagen inhibition animal model, visual inspection with image analysis (Example 1-1); conditions: values of individual mice
Text: as §1, with “16” for “20”, “21” for “24”
The test group was divided into a normal group, a negative control group, a test substance-administered group, and a positive control groups 1 and 2. Each of the normal group and the negative control group had 1 mouse, the test substance-administered group had 3 mice, and the positive control group 1 had two mice, and the positive control group 2 had one mouse. […]
Further, in order to quantify the results of hair-growth efficacy visual inspection, image analysis was performed on the entire epilation site (solvent or test substance, positive control substance application site) that is black (anagen) or a site where hair-growth begins. […] The result was quantified in %. […]

| Compound | Hair-growth efficacy (%) (male C57BL/6 mice [1]) | hair follicle generation and hair-growth efficacy (skin histology, FIG. 5) (male C57BL/6 mice [2]) | hair follicle generation and hair-growth efficacy (skin histology, FIG. 9) (male C57BL/6 mice [3]) | hair-growth efficacy (image analysis of epilation site) (male C57BL/6 mice [4]; Day 17 after administration, 0.1% dexamethasone to maintain catagen) | tendency to migrate to anagen (black/hair-growth area of epilation site, image analysis) (male C57BL/6 mice [4]; on 3 days of administration, topical 100 μL twice a day, dexamethasone-induced catagen) |
| --- | --- | --- | --- | --- | --- |
| 6-amino-1,2-dihydro-1-hydroxy-2-imino-4-phenoxypyrimidine [Minoxidil] | 45 | only minimal hair follicle generation and hair-growth efficacy degree | only minimal hair follicle generation and hair-growth efficacy degree | 6.1% and 21.2% | 0.1% and 0.3% |
| C[C@@H]1CCN(C(=O)CC#N)C[C@@H]1N(C)c1ncnc2[nH]ccc12 [Tofacitinib] | 25 | – | only minimal hair follicle generation and hair-growth efficacy degree | – | – |
